Where a name gives a salt, the structure may show the parent alone. Read-outs that look alike come from different tables or passages of the source.

The source of these data is patent EP0717040A1, “Thiazine or thiazepine derivatives which inhibit NOS” (Japan Tobacco Inc., priority 1994, dated 1996).

For test [1], the target named is inducible NO synthase (iNOS) (Rattus norvegicus, UniProt Q06518). As to the kind of experiment: Activity to inhibit inducible NO synthase (iNOS) derived from rat macrophages; conversion of [3H]-L-arginine to [3H]-L-citrulline. The class given is biochemical. Details: iNOS was extracted from the macrophages which have been treated with lipopolysaccharide and interferon-γ; endogenous in cells; host or cells: rat peritoneal macrophages treated with lipopolysaccharide and interferon-γ. On the procedure:
Activity to inhibit inducible NO synthase (iNOS) derived from rat macrophages
According to partly modified method of Y. Yui et al.(J. Biol. Chem., 266 (19), 12544-12547 (1991)), an iNOS fraction was prepared by applying lipopolysaccharide and interferon-γ to peritoneal macrophages. Thereafter, its enzymatic activity was measured based on the conversion of [³H]-L-arginine to [³H]-L-citrulline, in the same manner as in the case of cNOS.
To the iNOS thus extracted, a 50 mM Tris-HCl buffer solution (pH 7.4) containing 150 µM L-arginine, 5 mM NADPH, 5 mM DTT, 0.5 mM 5,6,7,8-tetrahydro-L-biopterin and 5 µM FAD was added together with a test compound and [³H]-L-arginine. The mixture was incubated for 30 minutes at 37°C. Thereafter, the reaction was terminated by adding a 25 mM sodium acetate buffer solution (pH 5.5) containing 1.25 mM L-citrulline, 2.5 mM EDTA and 0.25 mM EGTA. The reaction solution was passed through a cation-exchange resin. The obtained eluate was combined with the additional eluate obtained thereafter by eluting with water, and the radioactivity of the combined eluate was measured. The inhibition rate of the test compound on iNOS was calculated in the same manner as in Test 1. The concentration (IC₅₀) of the test compound required for inhibiting 50 % of the enzyme activity, were calculated.

Test [2] deals with T1, constitutive NO synthase (cNOS) (Rattus norvegicus, UniProt P29476).
T1 construct: cNOS was extracted from a rat cerebellum; from tissue; host or cells: rat cerebellum
As to the kind of experiment: Activity to inhibit constitutive NO synthase (cNOS) derived from rat cerebellum; conversion of [3H]-L-arginine to [3H]-L-citrulline. The class given is biochemical. On the procedure: Activity to inhibit constitutive NO synthase (cNOS) derived from rat cerebellum
The inhibition activity was tested according to a method of P. A. Bush et al. (Biochem, Biophys, Res. Commun., 185, 960-966 (1992)), using [³H]-L-arginine as a substrate and taking the conversion of [³H]-L-arginine to [³H]-L-citrulline as an index of the enzyme activity.
The test was conducted as follows: First, cNOS was extracted from a rat cerebellum with a 50 mM Tris-HCl buffer solution (pH 7.4) which contains 0.1 mM EDTA (ethylenediamine tetraacetate), 0.1 mM EGTA (ethyleneglycol bis(β-aminoethyl ether)-tetraacetate), 0.5 mM DTT (dithiothreitol), 1 µM PMSF (phenylmethylsulfonyl fluoride), 1 µM bestatin A, and 1 µM leupeptin. To the cNOS thus extracted, a 50 mM Tris-HCl buffer solution (pH 7.4) containing 10 µM L-arginine, 10 µM NADPH, 2 mM calcium chloride and calmoduline (0.1 µg), together with a test compound and [³H]-L-arginine were added. The mixture was incubated for 10 minutes at 25°C. The reaction was terminated by adding 20 mM sodium acetate buffer solution (pH 5.5) containing 1 mM L-citrulline, 2 mM EDTA, and 0.2 mM EGTA. The reaction solution was passed through a cation-exchange resin. This eluate was combined with another eluate which was obtained thereafter by eluting with water. To the combined eluate, a liquid scintillation cocktail was further added and its radioactivity (A) was measured. At the same time, the radioactivity (B) with respect to the case where the test compound was not added and the radioactivity (C) with respect to the case where an enzyme fraction was not added, were respectively measured. Then, the rate of cNOS inhibition was calculated in accordance with the following equation. The concentration (IC₅₀), at which the test compound can inhibit 50 % of the enzyme activity, were also calculated. Inhibition rate (%) = {1 - (A - C/B - C)} × 100 [formula]

Where [3] appears, read: cNOS extracted from rat cerebellum, 10 µM L-arginine, 10 minutes at 25°C, read-out: IC₅₀.
The mark [4] stands for this setting: iNOS from peritoneal macrophages treated with lipopolysaccharide and interferon-γ, 150 µM L-arginine, 30 minutes at 37°C, read-out: IC₅₀.

Compound `NC1=NCCS1` [Comparative Example 1, 2-aminothiazoline, reference compound] returned an IC50 in test [1] of 2000 nM.
With `CC(C)[C@@H]1CCSC(N)=N1` [Example 1, (S)-2-amino-5,6-dihydro-4-isopropyl-4H-1,3-thiazine hydrobromide], the values for the IC50 in test [2] (setting [3]) and in test [1] (setting [4]) were 20 nM and 300 nM, respectively.
As to `CC(C)[C@H]1CCSC(N)=N1` [Example 2, (R)-2-amino-5,6-dihydro-4-isopropyl-4H-1,3-thiazine hydrobromide], the IC50 in test [2] (setting [3]) was 300 nM.
In the case of `CCC[C@H]1CCSC(N)=N1` [Example 4, (S)-2-amino-5,6-dihydro-4-propyl-4H-1,3-thiazine hydrobromide], the IC50 worked out at 30 nM in test [2] (setting [3]) and 20 nM in test [1] (setting [4]).
Consider `CCCC[C@@H]1CCSC(N)=N1` [Example 5, (R)-2-amino-4-butyl-5,6-dihydro-4H-1,3-thiazine hydrobromide], for which the IC50 in test [2] (setting [3]) was 30 nM; in test [1] (setting [4]) it was 40 nM.
Turning to `CCCC[C@H]1CCSC(N)=N1` [Example 6, (S)-2-amino-4-butyl-5,6-dihydro-4H-1,3-thiazine hydrobromide], the IC50 in test [2] (setting [3]) stood at 30 nM; in test [1] (setting [4]), 70 nM.
With `CC(C)C[C@@H]1CCSC(N)=N1` [Example 7, (R)-2-amino-5,6-dihydro-4-isobutyl-4H-1,3-thiazine hydrobromide], the IC50 came out at 40 nM in test [2] (setting [3]) and 70 nM in test [1] (setting [4]).
Turning to `CC(C)C[C@H]1CCSC(N)=N1` [Example 8, (S)-2-amino-5,6-dihydro-4-isobutyl-4H-1,3-thiazine hydrobromide], the values for the IC50 in test [2] (setting [3]) and in test [1] (setting [4]) were 80 nM and 70 nM, respectively.
In test [2], `NC1=N[C@H](Cc2ccccc2)CCS1` [Example 9, (R)-2-amino-4-benzyl-5,6-dihydro-4H-1,3-thiazine hydrobromide] yielded an IC50 of 200 nM.
Consider `NC1=N[C@@H](Cc2ccccc2)CCS1` [Example 10, (S)-2-amino-4-benzyl-5,6-dihydro-4H-1,3-thiazine hydrobromide], for which the values for the IC50 in test [2] and in test [1] were 30 nM and 600 nM, respectively.
On the same counts, the results for `CC1CCCSC(N)=N1` (stereo not drawn) [Example 12, Bis(2-amino-4,5,6,7-tetrahydro-4-methyl-1,3-thiazepine) fumarate] are 100 nM and 70 nM.
On to `CCC[C@@H]1CCCSC(N)=N1` [Example 13, (R)-2-amino-4,5,6,7-tetrahydro-4-propyl-1,3-thiazepine hydrobromide], for which, in test [2] (setting [3]), the IC50 came out at 300 nM.
On to `CC1(C)CN=C(N)SC1` [Example 16, 2-amino-5,6-dihydro-5,5-dimethyl-4H-1,3-thiazine hydrobromide], for which the values for the IC50 in test [2] (setting [3]) and in test [1] (setting [4]) were 200 nM and 500 nM, respectively.
For the compound `NC1=NC(O)CCS1` (stereo not drawn) [Example 17, 2-amino-5,6-dihydro-4-hydroxyl-4H-1,3-thiazine hydrochloride], the IC50 in test [2] (setting [3]) was 20 nM; in test [1] (setting [4]), 50 nM.
Regarding `COC1CCSC(N)=N1` (stereo not drawn) [Example 18, Bis(2-amino-5,6-dihydro-4-methoxy-4H-1,3-thiazine) fumarate], the IC50 in test [2] turned out to be 20 nM; in test [1] it was 10 nM.
With `CCCOC1CCSC(N)=N1` (stereo not drawn) [Example 19, 2-amino-5,6-dihydro-4-propyloxy-4H-1,3-thiazine hydrochloride], the IC50 in test [2] (setting [3]) is 40 nM; in test [1] (setting [4]) it was 30 nM.
As to `CC(C)OC1CCSC(N)=N1` (stereo not drawn) [Example 20, 2-amino-5,6-dihydro-4-isopropoxy-4H-1,3-thiazine fumarate], the IC50 in test [2] (setting [3]) and in test [1] (setting [4]) was 30 nM each time.
On to `NC1=NC(OCc2ccccc2)CCS1` (stereo not drawn) [Example 22, Bis(2-amino-4-benzyloxy-5,6-dihydro-4H-1,3-thiazine) fumarate], for which the IC50 in test [2] was 100 nM; in test [1] it was 600 nM.
Turning to “(R)-2-amino-4-benzyl-4,5,6,7-tetrahydro-1,3-thiazepine hydrobromide [Example 15]”, the IC50 in test [2] (setting [3]) is 600 nM.
